{"source": "paper PMC10045298", "about": "“In Vitro Pharmacokinetic Behavior of Antiviral 3-Amidinophenylalanine Derivatives in Rat, Dog and Monkey Hepatocytes” (Biomedicines, 2023)", "origin": "cited, not measured here", "key": {"TMPRSS2": {"tested_on": "TMPRSS2", "parameters": "method as in PMID 35344983", "conditions": "cited from earlier work"}, "SARS-CoV-2 [1]": {"tested_on": "SARS-CoV-2", "parameters": "method as in PMID 35344983", "conditions": "human lung epithelium-derived human airway cells; cited from earlier work"}, "SARS-CoV-2 [2]": {"tested_on": "SARS-CoV-2", "parameters": "method as in PMID 35344983", "conditions": "K18-human ACE2 transgenic mouse model; cited from earlier work"}, "COVID-19": {"tested_on": "COVID-19", "parameters": "method as in PMID 35803469", "conditions": "repurposed drug candidate; cited from earlier work"}}, "note": "Read-outs that look alike come from different tables or passages of the source."}
{"smiles": "CS(=O)(=O)N[C@@H](CCC(N)=O)C(=O)N[C@@H](Cc1ccccc1)C(=O)N[C@@H](CCCN=C(N)N)C(=O)c1nc2ccccc2s1", "note": "[N-0385, Ms-Gln-Phe-Arg-kbt]", "values": [{"measurement": "IC50", "setting": "TMPRSS2", "result": "[…]"}, {"measurement": "Inhibition of SARS-CoV-2 infection", "setting": "SARS-CoV-2 [1]", "result": "effective"}, {"measurement": "Inhibition of SARS-CoV-2 infection", "setting": "SARS-CoV-2 [2]", "result": "effective"}]}
{"smiles": "CN(C)C(=O)COC(=O)Cc1ccc(OC(=O)c2ccc(NC(=N)N)cc2)cc1.CS(=O)(=O)O", "note": "[camostate, camostate mesylate]", "values": [{"measurement": "Outcome of clinical testing for COVID-19", "setting": "COVID-19", "result": "failed during clinical testing"}]}
